Source: patent US4452741A, “A-39183 Antibiotics and process for production thereof” (Eli Lilly and Company, priority 1983, dated 1984)
≈ marks a conversion by molar mass, not a printed value. Read-outs that look alike come from different tables or passages of the source.

How the values were obtained:
[1] = tested on: Bacteroides fragilis 1877; experiment: MIC, anaerobic bacteria; format: cell-based
[2] = tested on: Bacteroides melaninogenicus 1856/28; experiment: MIC, anaerobic bacteria; format: cell-based; conditions: Prevotella intermedia
[3] = electrometric titration; format: physicochemical; conditions: 66% dimethylformamide in water
Experimental: Antibiotic A-39183 factor A is a yellow, crystalline solid, having a molecular weight of 598.58, as determined by mass spectrometry, and an approximate elemental analysis as follows: 67.95% carbon, 5.20% hydrogen, and 26.79% oxygen. […] A-39183 factor A has the following specific rotation: [α]D^25 +18.9° (c 9.52, trifluoroethanol).
Antibiotic A-39183 factor b is a red, crystalline solid having a molecular weight of 580, as determined by mass spectrometry, and an approximate elemental analysis as follows: 70.56% carbon, 4.97% hydrogen, and 24.57% oxygen. […] A-39183 factor B has the following specific rotation: [α]D^25 +576.9° (c 8.85, trifluoroethanol).

[4] = tested on: Eubacterium aerofaciens 1235; experiment: MIC, anaerobic bacteria; format: cell-based; conditions: Collinsella aerofaciens
[5] = tested on: Bacteroides melaninogenicus 2736; experiment: MIC, anaerobic bacteria; format: cell-based
[6] = tested on: Bacteroides fragilis 111; experiment: MIC, anaerobic bacteria; format: cell-based
[7] = tested on: Peptostreptococcus anaerobius 1428; experiment: MIC, anaerobic bacteria; format: cell-based
[8] = tested on: Staphylococcus aureus 3055; experiment: agar-dilution MIC; format: cell-based
Description: (§1) The agar-dilution procedure described by the International Collaborative Study (ICS) group was used to determine MIC values.

[9] = tested on: Clostridium perfringens 81; experiment: microbe, parasite or virus in culture; format: cell-based
[10] = tested on: Fusobacterium symbiosum 1470; experiment: MIC, anaerobic bacteria; format: cell-based
[11] = tested on: Peptococcus asaccharolyticus 1302; experiment: MIC, anaerobic bacteria; format: cell-based; conditions: Peptoniphilus asaccharolyticus
[12] = tested on: Peptostreptococcus intermedius 1264; experiment: MIC, anaerobic bacteria; format: cell-based
[13] = tested on: Peptococcus prevoti 1281; experiment: MIC, anaerobic bacteria; format: cell-based
[14] = tested on: Clostridium septicum 1128; experiment: MIC, anaerobic bacteria; format: cell-based
Description: as §1

[15] = tested on: Bacteroides thetaiotaomicron 1438; experiment: MIC, anaerobic bacteria; format: cell-based
Description: as §1

[16] = solubility; format: physicochemical; conditions: organic solvents
[17] = tested on: Actinomyces israelii W855; experiment: MIC, anaerobic bacteria; format: cell-based
[18] = tested on: Bacteroides vulgatis 1211; experiment: MIC, anaerobic bacteria; format: cell-based
[19] = tested on: Streptococcus faecalis X66; experiment: agar-dilution MIC; format: cell-based; conditions: Enterococcus faecalis
[20] = tested on: Fusobacterium necrophorum 6054A; experiment: MIC, anaerobic bacteria; format: cell-based
[21] = tested on: Propionibacterium acnes 79; experiment: MIC, anaerobic bacteria; format: cell-based; conditions: Cutibacterium acnes
[22] = tested on: Bacteroides corrodens 1874; experiment: MIC, anaerobic bacteria; format: cell-based
[23] = tested on: Bacteroides fragilis 1936B; experiment: MIC, anaerobic bacteria; format: cell-based
[24] = tested on: Bacteroides fragilis 1451; experiment: MIC, anaerobic bacteria; format: cell-based
[25] = tested on: Bacteroides fragilis 108; experiment: MIC, anaerobic bacteria; format: cell-based
[26] = tested on: Bacteroides fragilis 107; experiment: MIC, anaerobic bacteria; format: cell-based
[27] = tested on: Streptococcus pneumoniae Park I; experiment: disc-plate zone of inhibition; format: cell-based; conditions: 6 mm discs, read-out: Zone Diameter
Experimental: (§2) Agar plates, inoculated with the test organism, were used; 6 mm. discs (0.02 ml. capacity) were saturated from log 2 dilutions of the antibiotic solution. Disc content was 1/5 or 1/50 of the concentration of the solution used, i.e., disc content of […] 30 μg. was obtained from a solution of 1500 μg./ml. concentration.

[28] = tested on: Streptococcus sp. (Group D) 9960; experiment: disc-plate zone of inhibition; format: cell-based; conditions: 6 mm discs, read-out: Zone Diameter
Experimental: as §2

[29] = tested on: Staphylococcus aureus 3055; experiment: disc-plate zone of inhibition; format: cell-based; conditions: benzylpenicillin-susceptible, 6 mm discs, read-out: Zone Diameter
Experimental: as §2

[30] = tested on: Staphylococcus aureus 3130; experiment: disc-plate zone of inhibition; format: cell-based; conditions: benzylpenicillin-resistant, methicillin-resistant, 6 mm discs, read-out: Zone Diameter
Experimental: as §2

[31] = tested on: Staphylococcus aureus 3074; experiment: disc-plate zone of inhibition; format: cell-based; conditions: benzylpenicillin-resistant, 6 mm discs, read-out: Zone Diameter
Experimental: as §2

[32] = tested on: Streptococcus pyogenes C203; experiment: disc-plate zone of inhibition; format: cell-based; conditions: 6 mm discs, read-out: Zone Diameter
Experimental: as §2

[33] = tested on: Bacteroides fragilis 2; experiment: MIC, anaerobic bacteria; format: cell-based
[34] = tested on: Bacteroides fragilis 110; experiment: MIC, anaerobic bacteria; format: cell-based
[35] = tested on: Bacteroides thetaiotaomicron 1900A; experiment: MIC, anaerobic bacteria; format: cell-based
[36] = tested on: Bacteroides fragilis 9; experiment: MIC, anaerobic bacteria; format: cell-based
[37] = tested on: Bacteroides fragilis 106; experiment: MIC, anaerobic bacteria; format: cell-based
[38] = tested on: Bacteroides fragilis 103; experiment: MIC, anaerobic bacteria; format: cell-based
[39] = tested on: Staphylococcus aureus 3074; experiment: agar-dilution MIC; format: cell-based; conditions: agar-dilution method, benzylpenicillin-resistant
[40] = tested on: Bacteroides fragilis 62; experiment: MIC, anaerobic bacteria; format: cell-based
[41] = tested on: Bacteroides fragilis 1470; experiment: MIC, anaerobic bacteria; format: cell-based
[42] = tested on: Bacteroides fragilis 112; experiment: MIC, anaerobic bacteria; format: cell-based
[43] = tested on: Bacteroides fragilis 104; experiment: MIC, anaerobic bacteria; format: cell-based
[44] = tested on: Bacteroides fragilis 113; experiment: MIC, anaerobic bacteria; format: cell-based
[45] = tested on: Bacteroides vulgatis 1563; experiment: MIC, anaerobic bacteria; format: cell-based
[46] = Bacteroides fragilis, 1877, Bacteroides fragilis 1877, first listing
[47] = Bacteroides fragilis, 111, Bacteroides fragilis 111, first listing
[48] = Bacteroides thetaiotaomicron, 1438, Bacteroides thetaiotaomicron 1438, first listing, read-out: MIC
[49] = Eikenella corrodens, 1874, Bacteroides corrodens 1874, first listing

For CC(=O)C1c2c(c(O)c3c(O)cccc3c2-c2c3c(c(O)c4c(O)cccc24)C(=O)CC(C)(O)C3C(C)=O)C(=O)CC1(C)O (centres unmarked) [A-39183 factor A], the MIC [1, 46] was 32 µg/mL (≈ 53.5 µM), the MIC [2] was over 128 µg/mL and the pKa ([3]; pH 4.81, 66% dimethylformamide in water, initial pH 4.81, read-out: pKa (first titratable group)) was about 6.75. For the same compound, the pKa ([3]; pH 4.81, 66% dimethylformamide in water, initial pH 4.81, read-out: pKa (second titratable group)) was about 8.43, the MIC [4] was 32 µg/mL (≈ 53.5 µM) and the MIC [5] was 16 µg/mL (≈ 26.7 µM). The MIC [6, 47] was 32 µg/mL (≈ 53.5 µM), the MIC [7] was 64 µg/mL (≈ 107 µM) and the MIC ([8]; agar-dilution method, benzylpenicillin-susceptible, read-out: MIC) was 32 µg/mL (≈ 53.5 µM). It also gave an MIC [9] of 32 µg/mL (≈ 53.5 µM), an MIC [10] of 64 µg/mL (≈ 107 µM) and an MIC [11] of 64 µg/mL (≈ 107 µM). It also gave an MIC [12] of 32 µg/mL (≈ 53.5 µM), an MIC [13] of 32 µg/mL (≈ 53.5 µM) and an MIC [14] of 16 µg/mL (≈ 26.7 µM). The MIC [15, 48] was 16 µg/mL (≈ 26.7 µM), the “solubility (soluble)” value [16] was “soluble in acetone, ethyl acetate, chloroform, dimethylformamide, dimethyl sulfoxide, and trifluoroethanol” and the MIC [17] was at most 0.5 µg/mL. It also gave an MIC [18] of 32 µg/mL (≈ 53.5 µM), an MIC ([19]; agar-dilution method, read-out: MIC) of 32 µg/mL (≈ 53.5 µM) and an MIC [20] of 16 µg/mL (≈ 26.7 µM). It also gave an MIC [21] of 32 µg/mL (≈ 53.5 µM), an MIC [22, 49] of 32 µg/mL (≈ 53.5 µM) and an MIC [23] of 32 µg/mL (≈ 53.5 µM).

CC(=O)c1c(C)cc(O)c2c(O)c3c(O)cccc3c(-c3c4c(c(O)c5c(O)cccc35)C(=O)CC(C)(O)C4C(C)=O)c12 (centres unmarked) [A-39183 factor B] gave an MIC [1, 46] of 1 µg/mL (≈ 1.72 µM), an MIC ([1]; Bacteroides fragilis, 1877, Bacteroides fragilis 1877, second listing) of 4 µg/mL (≈ 6.89 µM) and an MIC [2] of over 128 µg/mL. It also gave a pKa ([3]; pH 4.03, 66% dimethylformamide in water, initial pH 4.03, read-out: pKa (first titratable group)) of about 6.68, a pKa ([3]; pH 4.03, 66% dimethylformamide in water, initial pH 4.03, read-out: pKa (second titratable group)) of about 8.42 and an MIC [24] of 4 µg/mL (≈ 6.89 µM). The MIC [4] was 8 µg/mL (≈ 13.8 µM), the MIC [5] was 4 µg/mL (≈ 6.89 µM) and the MIC [25] was 4 µg/mL (≈ 6.89 µM). It also gave an MIC [6, 47] of at most 0.5 µg/mL, an MIC ([6]; Bacteroides fragilis, 111, Bacteroides fragilis 111, second listing) of 4 µg/mL (≈ 6.89 µM) and an MIC [7] of 8 µg/mL (≈ 13.8 µM). The MIC [26] was 4 µg/mL (≈ 6.89 µM), the MIC [8] was 0.5 µg/mL (≈ 0.861 µM) and the MIC [9] was 8 µg/mL (≈ 13.8 µM). For the same compound, the zone of inhibition at 30 µg/disc ([27]; 30 μg/disc) was 0 mm, the zone of inhibition at 300 µg/disc ([27]; 300 μg/disc) was 9.1 mm and the zone of inhibition at 30 µg/disc ([28]; 30 μg/disc) was 0 mm. The zone of inhibition at 300 µg/disc ([28]; 300 μg/disc) was 9.1 mm, the zone of inhibition at 30 µg/disc ([29]; 30 μg/disc) was 0 mm and the zone of inhibition at 300 µg/disc ([29]; 300 μg/disc) was 0 mm. It also gave a zone of inhibition at 30 µg/disc ([30]; 30 μg/disc) of 13.4 mm, a zone of inhibition at 300 µg/disc ([30]; 300 μg/disc) of 14 mm and a zone of inhibition at 30 µg/disc ([31]; 30 μg/disc) of 14.8 mm. The zone of inhibition at 300 µg/disc ([31]; 300 μg/disc) was 15.8 mm, the zone of inhibition at 30 µg/disc ([32]; 30 μg/disc) was 8 mm and the zone of inhibition at 300 µg/disc ([32]; 300 μg/disc) was 10 mm. For the same compound, the MIC [33] was 2 µg/mL (≈ 3.44 µM), the MIC [34] was 4 µg/mL (≈ 6.89 µM) and the MIC [35] was 16 µg/mL (≈ 27.6 µM). It also gave an MIC [36] of 4 µg/mL (≈ 6.89 µM), an MIC [10] of 8 µg/mL (≈ 13.8 µM) and an MIC [11] of 32 µg/mL (≈ 55.1 µM). For the same compound, the MIC [12] was 2 µg/mL (≈ 3.44 µM), the MIC [13] was 8 µg/mL (≈ 13.8 µM) and the MIC [14] was 2 µg/mL (≈ 3.44 µM). The MIC [15, 48] was 16 µg/mL (≈ 27.6 µM), the MIC ([15]; Bacteroides thetaiotaomicron, 1438, Bacteroides thetaiotaomicron 1438, second listing) was 4 µg/mL (≈ 6.89 µM) and the MIC [37] was 4 µg/mL (≈ 6.89 µM). The “solubility (soluble)” value [16] was “soluble in the same solvents as factor A”, the MIC [17] was at most 0.5 µg/mL and the MIC [38] was 4 µg/mL (≈ 6.89 µM). The MIC [18] was 2 µg/mL (≈ 3.44 µM), the MIC [19] was 4 µg/mL (≈ 6.89 µM) and the MIC [39] was 4 µg/mL (≈ 6.89 µM). For the same compound, the MIC [20] was at most 0.5 µg/mL, the MIC [21] was 2 µg/mL (≈ 3.44 µM) and the MIC [40] was 1 µg/mL (≈ 1.72 µM). It also gave an MIC [41] of 4 µg/mL (≈ 6.89 µM), an MIC [42] of 4 µg/mL (≈ 6.89 µM) and an MIC [22, 49] of 1 µg/mL (≈ 1.72 µM). It also gave an MIC ([22]; Eikenella corrodens, 1874, Bacteroides corrodens 1874, second listing) of 4 µg/mL (≈ 6.89 µM), an MIC [43] of 4 µg/mL (≈ 6.89 µM) and an MIC [23] of 2 µg/mL (≈ 3.44 µM). For the same compound, the MIC [44] was 4 µg/mL (≈ 6.89 µM) and the MIC [45] was 8 µg/mL (≈ 13.8 µM).
